From US9416128B2, “Fused heterocyclic compounds as ion channel modulators” (Gilead Sciences, Inc., priority 2013, dated 2016) come the findings set out here.

The target of assay [1] is wild-type human cardiac sodium channel, hNaV 1.5 (Late INa) (Homo sapiens, UniProt Q14524). Description: Late INa screening assay (whole cell patch clamp, QPatch, Tefluthrin-induced late current). It counts as cell-based. The following applies: HEK293, % inhibition (percent block of late INa) at 1 uM; HEK293 hNaV1.5; 10 μM Tefluthrin; read-out: Nav1.5 Late INa 1 uM. Here is the method:
The cardiac late sodium current (Late INa) and peak sodium current (Peak INa) assays are performed on an automated electrophysiology platform, QPatch 16X or QPatch HT (Sophion Bioscience, Copenhagen, Denmark) using the whole cell patch clamp technique to measure currents through the cell membrane. The assay uses an HEK293 (human embryonic kidney) cell line heterologously expressing the wild-type human cardiac sodium channel, hNaV 1.5, purchased from Millipore (Billerica, Mass.). No beta subunits were coexpressed with the Na channel alpha subunit. Cells are maintained with standard tissue culture procedures and stable channel expression is maintained with 400 μg/mL Geneticin in the culture medium. Experiments are carried out at 23-25° C.
For both the Late INa and Peak INa assays, series resistance compensation is set to 100% and series resistance and whole-cell compensation are performed automatically. Currents are digitized at 25 kHz and low-pass filtered at 5 kHz and stored in the Sophion Bioscience Oracle database (Sophion Bioscience, Copenhagen, Denmark). Analysis is performed using QPatch Assay software and data are compiled in Excel 2010 (Microsoft, Seattle, Wash., U.S.A.).
Compound stocks are routinely made by the Gilead Sample Bank in vials to 10 mM in dimethyl sulfoxide (DMSO). In some cases, when compounds are not soluble in DMSO, they are made in 100% ethanol. Stocks are sonicated as necessary. The extracellular solution for screening Late INa is composed of: 140 mM NaCl, 4 mM KCl, 1.8 mM CaCl2, 1 mM MgCl2, 10 mM HEPES and 10 mM Dextrose with pH adjusted to 7.35 using NaOH. The intracellular solution contains: 105 mM CsF, 20 mM CsCl, 10 NaF, 2 mM EGTA, 10 mM HEPES and 10 mM Dextrose with pH adjusted to 7.35 with CsOH. Compounds are diluted in extracellular solution using a MicroLab Nimbus (Hamilton Robotics, Reno, Nev.) to between 0.3 and 3 μM in glass vials and transferred to glass well plates before robotic addition to the cells. The 0 mM Na extracellular solution (0Na-ECF) used at the end of each experiment for the Late INa and Peak INa assays to measure baseline current contains: 140 Choline-Cl; 4 mM KCl, 1.8 mM CaCl2; 1 mM MgCl2; 10 mM HEPES and 10 mM Dextrose with pH was adjusted to 7.35 with CsOH.
For the Late INa assay, sodium channels are activated every 10 seconds (0.1 Hz) by depolarizing the cell membrane to −20 mV for 250 milliseconds (ms) from a holding potential of −120 mV.
Compounds were tested to determine their activity in blocking the late sodium current. Late INa was generated by adding 10 μM Tefluthrin (pyrethroid) to the extracellular solution. For the purposes of the screening, Late INa is defined as the mean current between 240 ms and 265 ms during the voltage step to −20 mV. After establishing the whole cell recording configuration, Late INa activator is added to each well 4 times over a 15 minute period so that the late component of the Na current reaches a stable value. Compounds were then added (typically at 0.3 or 1 μM), in the presence of the Late INa activator, with 3 additions over the course of 5 minutes. Measurements were made at the end of exposure to the third compound addition and values were normalized to the current level when all Na^+ was removed from the extracellular solution after two additions of 0Na-ECF.
Results are reported as percent block of late INa and results were analyzed by incorporating rundown correction for the Late INa.

In another assay the target is hNaV1.1 (SCN1A) (Homo sapiens, UniProt P35498). The experiment in a line: Use-dependent inhibition of the CNS NaV1.1 sodium channel. The assay is classed as cell-based. The following applies: % inhibition, 25 Hz; for inhibition at 1 µM: use-dependent block at 1 uM, read-out: Nav1.1 UDB 25 Hz 1 uM; for inhibition at 10 µM: use-dependent block at 10 uM, read-out: Nav1.1 UDB 25 Hz 10 uM. Here is the method:
HEK-293 cells stably expressing wild-type (WT) hNaV1.1 (SCN1A, NCBI# AB09354) were obtained from Millipore (Cat. # CYL3009) were used to record INa. Cells are maintained with standard tissue culture procedures and stable channel expression is maintained with 400 ug/mL G418 in the culture medium. Unless otherwise noted, all reagents are purchased from Sigma-Aldrich (St Louis, Mo., U.S.A.).
Assays measuring Use-Dependent Block (UDB) of NaV1.2 are performed on an automated electrophysiology platform, QPatch 16X or QPatch HT (Sophion Bioscience, Copenhagen, Denmark), using the whole cell patch clamp technique to measure currents through the cell membrane. Series resistance compensation is set to 100% and series resistance and whole-cell compensation are performed automatically. Currents stored in the Sophion Bioscience Oracle database (Sophion Bioscience, Copenhagen, Denmark). Analysis is performed using QPatch Assay software and data are compiled in Excel 2010 (Microsoft, Seattle, Wash., U.S.A.).
The internal (pipette) solution consists of (in mM) 105 CsF, 10 NaF, 20 CsCl, 2 EGTA, 10 HEPES, 10 Dextrose with a pH of 7.35 and osmolarity of 300 mOsmol/kg. The external (bath) solution contains in (mM): 145 NaCl, 4 KCl, 1.8 CaCl2, 1 MgCl2, 10 dextrose, 10 HEPES, with a pH of 7.35 and osmolarity of 310 mOsmol/kg. Experiments are carried out at 23-25° C.
Compound stocks are routinely made by the Gilead Sample Bank in vials to 10 mM in dimethyl sulfoxide (DMSO). In some cases, when compounds are not soluble in DMSO, they are made in 100% ethanol. Stocks are sonicated as necessary. […]
Cells are allowed to stabilize for 10 min after establishment of the whole-cell configuration before current is measured. The test compound is applied 2 times at 60 second intervals. After the second compound addition, a 200 second wait period was imposed to allow for equilibration.
Leak currents are subtracted by using an online P/4 procedure and all currents are low-pass Bessel filtered at 5 kHz and digitized at […].
Use-dependent block of NaV1.2 peak current is measured during pulse number 20 of a voltage pulse train (0 mV, 20 ms, 20 pulses, 25 Hz) from a holding potential of −120 mV. Currents are normalized to the peak current recorded in response to the first pulse in each frequency train. The voltage protocol for UDB was performed in the absence and presence of compound and percentage inhibition was calculated with respect to the compound free condition. Results are presented as mean percentage inhibition and data analysis is performed using QPatch Assay Software 4.0, and Excel 2002 (Microsoft, Seattle, Wash., U.S.A.).

wild-type human cardiac sodium channel, hNaV 1.5 (Late INa), sequence (Q14524 whole entry): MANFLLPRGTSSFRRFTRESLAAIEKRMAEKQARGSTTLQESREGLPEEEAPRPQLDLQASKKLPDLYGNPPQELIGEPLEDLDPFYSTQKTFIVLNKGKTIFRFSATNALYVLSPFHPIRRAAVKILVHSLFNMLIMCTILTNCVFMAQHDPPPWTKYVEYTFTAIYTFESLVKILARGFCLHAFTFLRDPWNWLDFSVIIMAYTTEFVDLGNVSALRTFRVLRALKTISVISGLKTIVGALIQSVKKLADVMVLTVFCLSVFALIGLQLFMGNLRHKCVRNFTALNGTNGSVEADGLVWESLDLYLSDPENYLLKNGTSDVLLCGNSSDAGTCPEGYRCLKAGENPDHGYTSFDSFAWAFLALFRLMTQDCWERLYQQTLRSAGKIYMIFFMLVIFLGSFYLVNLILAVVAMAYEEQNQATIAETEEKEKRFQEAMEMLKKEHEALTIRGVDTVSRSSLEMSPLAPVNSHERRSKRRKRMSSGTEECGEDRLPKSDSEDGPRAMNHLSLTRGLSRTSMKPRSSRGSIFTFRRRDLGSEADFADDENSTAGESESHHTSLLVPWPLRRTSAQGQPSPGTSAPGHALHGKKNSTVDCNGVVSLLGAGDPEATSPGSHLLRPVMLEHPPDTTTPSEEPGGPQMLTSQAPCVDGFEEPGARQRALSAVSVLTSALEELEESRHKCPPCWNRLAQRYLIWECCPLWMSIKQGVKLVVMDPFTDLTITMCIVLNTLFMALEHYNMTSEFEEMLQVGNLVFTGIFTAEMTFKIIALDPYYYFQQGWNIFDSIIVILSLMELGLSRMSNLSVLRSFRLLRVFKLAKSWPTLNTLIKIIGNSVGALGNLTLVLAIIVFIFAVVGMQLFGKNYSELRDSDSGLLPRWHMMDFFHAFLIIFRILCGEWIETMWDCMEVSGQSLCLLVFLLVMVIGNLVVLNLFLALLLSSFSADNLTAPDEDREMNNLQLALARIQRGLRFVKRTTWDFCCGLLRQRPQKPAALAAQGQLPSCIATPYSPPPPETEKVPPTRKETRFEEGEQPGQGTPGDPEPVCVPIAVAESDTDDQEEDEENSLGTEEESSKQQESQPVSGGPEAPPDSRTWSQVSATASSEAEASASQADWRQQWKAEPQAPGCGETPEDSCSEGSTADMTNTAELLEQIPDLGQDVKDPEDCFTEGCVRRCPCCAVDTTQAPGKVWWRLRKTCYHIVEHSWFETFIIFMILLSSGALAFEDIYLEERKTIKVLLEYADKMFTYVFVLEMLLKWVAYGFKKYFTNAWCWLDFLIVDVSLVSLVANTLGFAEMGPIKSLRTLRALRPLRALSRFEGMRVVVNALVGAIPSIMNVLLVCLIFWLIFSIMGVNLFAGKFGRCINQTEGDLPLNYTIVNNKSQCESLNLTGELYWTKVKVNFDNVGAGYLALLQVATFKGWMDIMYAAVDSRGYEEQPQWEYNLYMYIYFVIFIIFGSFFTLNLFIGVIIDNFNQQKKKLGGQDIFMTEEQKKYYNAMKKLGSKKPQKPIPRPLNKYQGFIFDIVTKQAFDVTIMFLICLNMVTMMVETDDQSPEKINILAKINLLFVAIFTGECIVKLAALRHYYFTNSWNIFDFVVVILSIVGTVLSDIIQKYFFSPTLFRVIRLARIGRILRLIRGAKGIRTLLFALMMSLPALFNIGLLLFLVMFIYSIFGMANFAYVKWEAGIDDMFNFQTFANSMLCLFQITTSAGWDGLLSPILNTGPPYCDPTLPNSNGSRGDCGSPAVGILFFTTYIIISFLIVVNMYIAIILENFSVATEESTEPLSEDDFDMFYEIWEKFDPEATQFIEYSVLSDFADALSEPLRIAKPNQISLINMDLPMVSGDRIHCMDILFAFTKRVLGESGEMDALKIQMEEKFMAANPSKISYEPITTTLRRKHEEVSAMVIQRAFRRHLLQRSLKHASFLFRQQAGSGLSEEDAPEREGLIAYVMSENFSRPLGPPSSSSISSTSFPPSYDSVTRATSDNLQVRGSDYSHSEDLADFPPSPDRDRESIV

Take `O=C1Oc2ccc(-c3ccc(OC(F)(F)F)cc3)cc2CN1Cc1ncccn1` [Example 3, 3-(pyrimidin-2-ylmethyl)-6-(4-(trifluoromethoxy)phenyl)-3,4-dihydro-2H-benzo[e][1,3]oxazin-2-one]: the inhibition at 1 µM in assay [1] is 51.8%. Also, at hNaV1.1 (SCN1A), the inhibition at 1 µM was determined as 42.6% and the inhibition at 10 µM amounted to 91.6%.

Consider `O=C1Oc2ccc(-c3ccc(C(F)(F)F)cc3)cc2CN1Cc1ncccn1` [Example 4, 3-(pyrimidin-2-ylmethyl)-6-(4-(trifluoromethyl)phenyl)-3,4-dihydro-2H-benzo[e][1,3]oxazin-2-one], for which the inhibition at 1 µM in assay [1] is 53.9%; at hNaV1.1 (SCN1A), 49.9%. On hNaV1.1 (SCN1A), the inhibition at 10 µM came out at 76.5%.

Regarding `Cc1nccc(CN2Cc3cc(-c4ccc(OC(F)(F)F)cc4)ccc3OC2=O)n1` [Example 15, 3-((2-methylpyrimidin-4-yl)methyl)-6-(4-(trifluoromethoxy)phenyl)-3,4-dihydro-2H-benzo[e][1,3]oxazin-2-one], the inhibition at 1 µM in assay [1] came out at 30%.

`CC1c2cc(-c3ccc(C(F)(F)F)cc3)ccc2OC(=O)N1Cc1ncccn1` (stereo not drawn) [Example 49, 4-methyl-3-(pyrimidin-2-ylmethyl)-6-(4-(trifluoromethyl)phenyl)-3,4-dihydro-2H-benzo[e][1,3]oxazin-2-one]: the inhibition at 1 µM in assay [1] is 41.5%. Further, at hNaV1.1 (SCN1A), the inhibition at 1 µM worked out at 21.5% and the inhibition at 10 µM came to 82.4%.

As for `CC1c2cc(-c3cccc(Oc4ccccc4)c3)ccc2OC(=O)N1Cc1ncccn1` (stereo not drawn) [Example 51, 4-methyl-6-(3-phenoxyphenyl)-3-(pyrimidin-2-ylmethyl)-3,4-dihydro-2H-benzo[e][1,3]oxazin-2-one], the inhibition at 1 µM in assay [1] is 41.6%.

With `O=C1Oc2cc3c(cc2CN1Cc1ncccn1)-c1ccc(OC(F)(F)F)cc1C3` [Example 60, 3-(pyrimidin-2-ylmethyl)-8-(trifluoromethoxy)-3,4-dihydrofluoreno[3,2-e][1,3]oxazin-2(10H)-one], the inhibition at 1 µM in assay [1] was 11.2%.
